Measured values published in PMC11150261, “Evaluation of antibacterial, cytotoxicity, and apoptosis activity of novel chromene-sulfonamide hybrids synthesized under solvent-free conditions and 3D-QSAR modeling studies” (Scientific Reports, 2024).
≈ marks a conversion by molar mass, not a printed value. Entries after “also recorded” stand apart in the source; their conditions may differ. Read-outs that look alike come from different tables or passages of the source.

Tests used:
fibroblast L929 cells = assay: Cytotoxicity assay by MTT; type: cell-based; details: Mus musculus, fibroblast L929 cell line, 24 h
Experimental: MTT was applied to evaluate the cytotoxicity of the newly synthesized compounds against fibroblast L929 cells (Pasteur Institute, Tehran, Iran). Briefly, 100 μl of cell suspension (1 × 10^4 cells/well) in RPMI 1640 medium, as seeded in 96-well microplates and incubated for 24 h (37 °C, 5% CO2 air humidified). After removing the old media, 100 µl of each of the newly synthesized compounds was added to each well at different concentrations. The plates were incubated for another 24 h in the same condition. To determine the positive and negative controls, doxorubicin and DMSO were used. Cell survival was determined by adding 10 µL of an MTT solution (5 mg/ml in PBS) to each well and incubating at 37 °C for 3 h. The previous MTT-containing media was then removed, and 100 µL DMSO was pipetted into each well to dissolve the produced formazan crystals. Using an ELISA plate reader (Startfix-2100, Awareness, USA), absorbance was measured at 570 nm. By plotting the percentage of cytotoxicity versus concentration of the produced compounds, the concentrations that inhibit half of the cell population (IC50) were determined. A mean and standard deviation (SD) are used to represent the results. The percentage cell viability was calculated using the formula: Viability=Absorbance \, of \, treated \, cells-background \, absorbance(b)/Absorbance \, of \, untreated \, cells(c)-background \, absorbance(b)×100 where (b) = blank, and (c) = control.

S. aureus ATCC 25923 = assay: Broth microdilution MIC; type: cell-based; details: for MIC effect on S. aureus: SAR effect diagram, Table 6; for MIC: Staphylococcus aureus, ATCC25923
Experimental: (§1) A broth microdilution method was utilized to explore the minimum inhibitory concentrations (MIC) of all the newly synthesized compounds against E. coli ATCC 25922 and S. aureus ATCC 25923. Test compounds were prepared using dimethyl sulfoxide (DMSO) as a stock solution, followed by serial dilutions in Mueller Hinton broth containing up to one percent DMSO. At the end, a diluted bacterial suspension from a 0.5 McFarland tube was added to all the wells (the final volume of each well was 1 × 10^5 CFU/ml). In the growth control, a culture medium with bacteria was used as a positive control, and a culture medium without bacteria was used as a negative control (sterility control). The MIC was the lowest concentration of the synthesized compounds that produced no growth on the plate. Sulfisoxazole, functioning as a sulfonamide antibiotic, and gentamicin were employed in a comparative analysis of antibacterial activity, cytotoxicity, and apoptosis assessment.

E. coli ATCC 25922 = assay: Broth microdilution MIC; type: cell-based; details: for MIC: Escherichia coli, ATCC25922; for MIC effect on E. coli: SAR effect diagram
Experimental: as §1

[1] = system: fibroblast L929 cell line; assay: Apoptosis Annexin V binding assay (flow cytometry); type: cell-based; details: for induced cell death: L929 cells, 24 h, IC50 concentration of each compound; for apoptotic effects: at the IC50 concentration
Experimental: (§2) To detect apoptosis, the Annexin V binding assay was used. The assay was performed according to the manufacturer's instructions using a FITC Annexin V Apoptosis Detection Kit with PI from BioLegend® (San Diego, California). To conduct this test, the fibroblast L929 cell line (Pasteur Institute, Tehran, Iran) was treated with various concentrations of the newly synthesized compounds and then incubated for 24 h at 37 °C with 5% CO2. Subsequently, each well's supernatant was removed and the cells were washed with PBS. Each well was then filled with 500 μl of Annexin-binding buffer (10 mM HEPES, 140 mM NaCl, and 2.5 mM CaCl2, pH 7.4) and 10 μl of Annexin V and PI. For 15 min, the plates were incubated at room temperature and kept away from light. After incubation, using a BD FACSCalibur flow cytometer (Biosciences, San Jose, CA, USA), the cells were examined after incubation. FlowJo software (version 10.5.3, TreeStar Incorporated, Ashland, OR) was used to analyze flow cytometry data.

[2] = Apoptosis Annexin V binding assay (flow cytometry); type: cell-based; details: mouse, L929 fibroblast cells; L929, IC50 concentration, Annexin V-FITC/PI
Experimental: as §2

[3] = Table 7, read-out: MIC for S. aureus
[4] = microdilution method, read-out: Minimum inhibitory concentrations (MIC) S. aureus ATCC 25923
[5] = Table 6, antibacterial activity against E. coli, read-out: MIC for E. coli ATCC 25922
[6] = microdilution method, read-out: Minimum inhibitory concentrations (MIC) E. coli ATCC 25922

CC(=O)Nc1ccc(S(=O)(=O)Nc2ccc3c(c2)OC(N)=C(C#N)C3c2ccc(F)cc2)cc1 (stereo not drawn) [7b, N-[4-[2-amino-3-cyano-4-(4-fluoro-phenyl)-4H-chromene-7-ylsulfamoyl]-phenyl}-acetamide]
melting point: 230 to 233 °C
IC50 (fibroblast L929 cells): 182 µg/mL (≈ 380 µM)
MIC effect on S. aureus (S. aureus ATCC 25923): Positive
MIC (S. aureus ATCC 25923; [3]): 128 µg/mL (≈ 267 µM)
MIC (S. aureus ATCC 25923; [4]): 128 µg/mL (≈ 267 µM)
MIC (E. coli ATCC 25922; [5]): 128 µg/mL (≈ 267 µM)
MIC (E. coli ATCC 25922; [6]): 128 µg/mL (≈ 267 µM)
MIC effect on E. coli (E. coli ATCC 25922): Positive

N#CC1=C(N)Oc2cc(NS(=O)(=O)c3ccccc3)ccc2C1c1ccccc1F (stereo not drawn) [11b, N-(2-amino-3-cyano-4-(2-fluorophenyl)-4H-chromen-7-yl) benzenesulfonamide]
melting point: 122 to 125 °C
IC50 (fibroblast L929 cells): 162 µg/mL (≈ 384 µM)
MIC effect on S. aureus (S. aureus ATCC 25923): Neutral
MIC (S. aureus ATCC 25923; [3]): 256 µg/mL (≈ 607 µM)
MIC (S. aureus ATCC 25923; [4]): 256 µg/mL (≈ 607 µM)
MIC (E. coli ATCC 25922; [5]): 256 µg/mL (≈ 607 µM)
MIC (E. coli ATCC 25922; [6]): 256 µg/mL (≈ 607 µM)
MIC effect on E. coli (E. coli ATCC 25922): neutral or negative; also recorded: Neutral

COc1ccc(C2C(C#N)=C(N)Oc3cc(NS(=O)(=O)c4ccc(C)cc4)ccc32)cc1OC (stereo not drawn) [3b, N-[2-amino-3-cyano-4-(3,4-dimethoxy-phenyl)-4H-chromene-7-yl]-4-methyl-benzene sulfonamide]
melting point: 127 to 130 °C
IC50 (fibroblast L929 cells): 219 µg/mL (≈ 459 µM)
MIC effect on S. aureus (S. aureus ATCC 25923): Negative
MIC (S. aureus ATCC 25923; [3]): > 512 µg/mL
MIC (S. aureus ATCC 25923; [4]): > 512 µg/mL
MIC (E. coli ATCC 25922; [5]): > 512 µg/mL
MIC (E. coli ATCC 25922; [6]): > 512 µg/mL
MIC effect on E. coli (E. coli ATCC 25922): neutral or negative; also recorded: Negative

CC(=O)Nc1ccc(S(=O)(=O)Nc2ccc3c(c2)OC(N)=C(C#N)C3c2ccc(Cl)cc2)cc1 (stereo not drawn) [8b, N-[4-[2-amino-3-cyano-4-(4-chloro-phenyl)-4H-chromene-7-ylsulfamoyl]-phenyl}-acetamide]
IC50 (fibroblast L929 cells): 90 µg/mL (≈ 182 µM)
induced cell death [1]: 56.8%
viability at 24 h [2]: 43.2%
antibacterial effect on S. aureus (MIC results) (S. aureus ATCC 25923): robust antibacterial effect
MIC effect on S. aureus (S. aureus ATCC 25923): Positive
MIC (S. aureus ATCC 25923; [3]): 32 µg/mL (≈ 64.7 µM)
MIC (S. aureus ATCC 25923; [4]): 32 µg/mL (≈ 64.7 µM)
antibacterial effect on E. coli (MIC results) (E. coli ATCC 25922): robust antibacterial effect
MIC (E. coli ATCC 25922; [5]): 64 µg/mL (≈ 129 µM)
MIC (E. coli ATCC 25922; [6]): 64 µg/mL (≈ 129 µM)
MIC effect on E. coli (E. coli ATCC 25922): Positive

COc1ccc(C2C(C#N)=C(N)Oc3cc(NS(=O)(=O)c4ccc(C)cc4)ccc32)cc1 (stereo not drawn) [1b, N-[2-amino-3-cyano-4-(4-methoxy-phenyl)-4H-chromene-7-yl]-4-methyl-benzene sulfonamide]
IC50 (fibroblast L929 cells): 139 µg/mL (≈ 311 µM)
induced cell death [1]: 42.29%
viability at 24 h [2]: 55%
MIC effect on S. aureus (S. aureus ATCC 25923): Negative
MIC (S. aureus ATCC 25923; [3]): > 512 µg/mL
MIC (S. aureus ATCC 25923; [4]): > 512 µg/mL
MIC (E. coli ATCC 25922; [5]): 256 µg/mL (≈ 572 µM)
MIC (E. coli ATCC 25922; [6]): 256 µg/mL (≈ 572 µM)
MIC effect on E. coli (E. coli ATCC 25922): Neutral

CSc1ccc(C2C(C#N)=C(N)Oc3cc(NS(=O)(=O)c4ccccc4)ccc32)cc1 (stereo not drawn) [10b, N-(2-amino-3-cyano-4-(4-(methylthio)phenyl)-4H-chromen-7-yl)benzenesulfonamide]
melting point: 135 to 138 °C
IC50 (fibroblast L929 cells): 247 µg/mL (≈ 549 µM)
MIC effect on S. aureus (S. aureus ATCC 25923): Negative
MIC (S. aureus ATCC 25923; [3]): > 512 µg/mL
MIC (S. aureus ATCC 25923; [4]): > 512 µg/mL
MIC (E. coli ATCC 25922; [5]): 256 µg/mL (≈ 569 µM)
MIC (E. coli ATCC 25922; [6]): 256 µg/mL (≈ 569 µM)
MIC effect on E. coli (E. coli ATCC 25922): neutral or negative; also recorded: Neutral

COc1ccc(C2C(C#N)=C(N)Oc3cc(NS(=O)(=O)c4ccc(NC(C)=O)cc4)ccc32)cc1OC (stereo not drawn) [9b, N-[4-[2-amino-3-cyano-4-(3,4-dimethoxy-phenyl)-4H-chromene-7-ylsulfamoyl]-phenyl}-acetamide]
melting point: 235 to 238 °C
IC50 (fibroblast L929 cells): 234 µg/mL (≈ 450 µM)
MIC effect on S. aureus (S. aureus ATCC 25923): Negative
MIC (S. aureus ATCC 25923; [3]): > 512 µg/mL
MIC (S. aureus ATCC 25923; [4]): > 512 µg/mL
MIC (E. coli ATCC 25922; [5]): 256 µg/mL (≈ 492 µM)
MIC (E. coli ATCC 25922; [6]): 256 µg/mL (≈ 492 µM)
MIC effect on E. coli (E. coli ATCC 25922): neutral or negative; also recorded: Neutral

Cc1ccc(S(=O)(=O)Nc2ccc3c(c2)OC(N)=C(C#N)C3c2ccc(Cl)cc2)cc1 (stereo not drawn) [4b, N-[2-amino-3-cyano-4-(4-chloro-phenyl)-4H-chromene-7-yl]-4-methyl-benzene sulfonamide]
IC50 (fibroblast L929 cells): 152 µg/mL (≈ 336 µM)
induced cell death [1]: 22.2%
viability at 24 h [2]: 77.4%
MIC effect on S. aureus (S. aureus ATCC 25923): Neutral
MIC (S. aureus ATCC 25923; [3]): 256 µg/mL (≈ 566 µM)
MIC (S. aureus ATCC 25923; [4]): 256 µg/mL (≈ 566 µM)
MIC (E. coli ATCC 25922; [5]): 128 µg/mL (≈ 283 µM)
MIC (E. coli ATCC 25922; [6]): 128 µg/mL (≈ 283 µM)
MIC effect on E. coli (E. coli ATCC 25922): Positive

CC(=O)Nc1ccc(S(=O)(=O)Nc2ccc3c(c2)OC(N)=C(C#N)C3c2ccccc2)cc1 (stereo not drawn) [5b, N-[4-(2-amino-3-cyano-4-phenyl-4H-chromen-7-ylsulfamoyl)-phenyl]-acetamide]
melting point: 240 to 243 °C
IC50 (fibroblast L929 cells): 173 µg/mL (≈ 376 µM)
MIC effect on S. aureus (S. aureus ATCC 25923): Positive
MIC (S. aureus ATCC 25923; [3]): 128 µg/mL (≈ 278 µM)
MIC (S. aureus ATCC 25923; [4]): 128 µg/mL (≈ 278 µM)
MIC (E. coli ATCC 25922; [5]): 128 µg/mL (≈ 278 µM)
MIC (E. coli ATCC 25922; [6]): 128 µg/mL (≈ 278 µM)
MIC effect on E. coli (E. coli ATCC 25922): Positive

Cc1noc(NS(=O)(=O)c2ccc(N)cc2)c1C [Sulfisoxazole, reference compound]
IC50 (fibroblast L929 cells): 218 µg/mL (≈ 816 µM)
apoptotic effects [1]: neither Sulfisoxazole nor Gentamicin demonstrated apoptotic effects
MIC (S. aureus ATCC 25923; [4]): 256 µg/mL (≈ 958 µM)
MIC (E. coli ATCC 25922; [6]): 256 µg/mL (≈ 958 µM)

COc1ccccc1C1C(C#N)=C(N)Oc2cc(NS(=O)(=O)c3ccc(C)cc3)ccc21 (stereo not drawn) [2b, N-[2-amino-3-cyano-4-(2-methoxy-phenyl)-4H-chromene-7-yl]-4-methyl-benzene sulfonamide]
melting point: 180 to 183 °C
IC50 (fibroblast L929 cells): 229 µg/mL (≈ 512 µM)
MIC effect on S. aureus (S. aureus ATCC 25923): Negative
MIC (S. aureus ATCC 25923; [3]): > 512 µg/mL
MIC (S. aureus ATCC 25923; [4]): > 512 µg/mL
MIC (E. coli ATCC 25922; [5]): 128 µg/mL (≈ 286 µM)
MIC (E. coli ATCC 25922; [6]): 128 µg/mL (≈ 286 µM)
MIC effect on E. coli (E. coli ATCC 25922): Positive

CNC(C)C1CCC(N)C(OC2C(N)CC(N)C(OC3OCC(C)(O)C(NC)C3O)C2O)O1 (stereo not drawn) [Gentamicin, reference compound]
IC50 (fibroblast L929 cells): 182 µg/mL (≈ 381 µM)
apoptotic effects [1]: neither Sulfisoxazole nor Gentamicin demonstrated apoptotic effects
MIC (S. aureus ATCC 25923; [4]): 4 µg/mL (≈ 8.38 µM)
MIC (E. coli ATCC 25922; [6]): 4 µg/mL (≈ 8.38 µM)
